Columns and labels:
[1] = system: IgE antibodies from the serum of patients with atopic eczema; assay type: binding, human
[2] = system: peripheral blood lymphocytes (PBMC); assay type: cell-based, human
[3] = system: peripheral blood lymphocytes (PBMC); assay type: cell-based, human; remark: listed apart in the source
[4] = system: IgE antibodies from the serum of patients with atopic eczema; assay type: binding, human; remark: listed apart in the source

## QEEDFLTLH [Peptide P2]
[1]
  IgE binding in the dot blot: weak but clearly detectable IgE binding
[2]
  Effect on proliferation of lymphocytes: did not bring to light any significant effects
[3]
  Intracellular IFNγ production: P1 suppresses the production of IFNγ, a cytokine which mediates a number of immunological functions, more strongly than P2
  Intracellular IL-4 production: is stimulated as a function of the dosage
  Ratio between IFNγ and IL-4 (IFNγ+ Th1 cells to IL-4+ Th2 cells): modified by the peptides as a function of the dosage in favour of the IL-4 producing Th2 lymphocytes

## QELDYLTRH [Peptide P1]
[1]
  IgE binding in the dot blot: weak but clearly detectable IgE binding

## S. aureus enterotoxin B [SEB, reference compound]
[4]
  IgE binding in the immunoblot: possible to detect specific IgE antibodies against SEB

## V Q T N K K K V T A Q E L D Y L T R H (VQTNKKKVTAQELDYLTRH) [Peptide (c)]
[4]
  IgE binding in the immunoblot: the only one to exhibit an IgE binding
